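Where inhibition never reached the appropriate level, the endpoint shown equals the highest concentration tested. Otherwise, values were interpolated linearly from a five-concentration, 48-hour dose response in 96-well plates. Abbreviation: GI50, concentration required for 50% inhibition of growth.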 Calls of active or inactive are those of the source. Cut-off read from the data, not from the text of the source: active = GI50 up to about 1.1 µM and inactive = higher.
Columns and labels:
Experiment in all cases: growth of human tumour cells (NCI), 48 h
SK-MEL-5 = test system: SK-MEL-5
CAKI-1 = test system: CAKI-1
OVCAR-5 = test system: OVCAR-5
RPMI-8226 = test system: RPMI-8226
MOLT-4 = test system: MOLT-4
A498 = test system: A498
HOP-92 = test system: HOP-92
MDA-MB-231 = test system: MDA-MB-231
SNB-75 = test system: SNB-75
OVCAR-8 = test system: OVCAR-8
Malme-3M = test system: Malme-3M
NCI-H23 = test system: NCI-H23
SF-295 = test system: SF-295
BT-549 = test system: BT-549
RXF 393 = test system: RXF 393
HT-29 = test system: HT-29
HCT-116 = test system: HCT-116
SW-620 = test system: SW-620
HCC 2998 = test system: HCC 2998
SR = test system: SR

Measured: GI50

CN1CCc2c(sc3ncn(Nc4ccc(Cl)cc4)c(=N)c23)C1
inactive: SK-MEL-5 > 100 µM | CAKI-1 > 100 µM | OVCAR-5 > 100 µM | RPMI-8226 > 100 µM | MOLT-4 > 100 µM | A498 > 100 µM | HOP-92 > 100 µM | MDA-MB-231 > 100 µM | SNB-75 > 100 µM | OVCAR-8 > 100 µM | Malme-3M > 100 µM | NCI-H23 > 100 µM | SF-295 > 100 µM | BT-549 > 100 µM | RXF 393 > 100 µM | HT-29 > 100 µM | HCT-116 > 100 µM | SW-620 > 100 µM

O=C(Cn1c2ccc(Br)cc2c2nc3ccccc3nc21)Nc1ccccc1
inactive: SK-MEL-5 34.6 µM | CAKI-1 26.8 µM | OVCAR-5 47 µM | RPMI-8226 37.7 µM | MOLT-4 > 100 µM | A498 34 µM | HOP-92 14.1 µM | MDA-MB-231 13.3 µM | SNB-75 21.3 µM | OVCAR-8 15.1 µM | Malme-3M 28.6 µM | NCI-H23 28 µM | SF-295 31.3 µM | BT-549 > 100 µM | RXF 393 20.2 µM | HT-29 24.8 µM | HCT-116 14.5 µM | SW-620 24.8 µM | HCC 2998 34.8 µM

CC(C)=CCC/C(C)=C/CC/C(C)=C/CSc1ccccc1C(=O)O [SALIRASIB]
inactive: SK-MEL-5 14.8 µM | CAKI-1 22.1 µM | OVCAR-5 19.2 µM | RPMI-8226 32 µM | MOLT-4 23.5 µM | A498 23.7 µM | HOP-92 25.9 µM | MDA-MB-231 22.6 µM | SNB-75 19.1 µM | OVCAR-8 17.4 µM | NCI-H23 18.2 µM | SF-295 18.7 µM | BT-549 16.7 µM | RXF 393 27.2 µM | HT-29 20.5 µM | HCT-116 16.7 µM | SW-620 35.9 µM | HCC 2998 18 µM

CC(=O)C(I(OS(=O)(=O)c1ccc(C)cc1)c1ccccc1)=P(c1ccccc1)(c1ccccc1)c1ccccc1
inactive: SK-MEL-5 22.1 µM | CAKI-1 > 100 µM | OVCAR-5 23 µM | RPMI-8226 21.4 µM | MOLT-4 26.4 µM | A498 > 100 µM | HOP-92 10.5 µM | MDA-MB-231 23.4 µM | OVCAR-8 32.6 µM | Malme-3M 14.8 µM | NCI-H23 18.1 µM | SF-295 99.3 µM | BT-549 18.9 µM | RXF 393 42.1 µM | HT-29 18.9 µM | HCT-116 21.2 µM | HCC 2998 18 µM

Cc1cccc(C(C)(C)C)c1NC(=O)/C(Cc1nc2ccc([N+](=O)[O-])cc2nc1O)=N\NC(=O)C[N+](C)(C)C
inactive: SK-MEL-5 > 100 µM | CAKI-1 > 100 µM | OVCAR-5 > 100 µM | RPMI-8226 84.5 µM | MOLT-4 38.5 µM | A498 60.7 µM | HOP-92 47.2 µM | MDA-MB-231 > 100 µM | SNB-75 > 100 µM | OVCAR-8 > 100 µM | Malme-3M > 100 µM | NCI-H23 > 100 µM | SF-295 > 100 µM | BT-549 38.5 µM | HT-29 > 100 µM | HCT-116 > 100 µM | SW-620 65.8 µM | HCC 2998 > 100 µM

Cc1cc2c(cc1C)[n+]([O-])c(N1CCN(c3ccc([N+](=O)[O-])cc3)CC1)c(C#N)[n+]2[O-]
inactive: SK-MEL-5 75.7 µM | CAKI-1 83 µM | OVCAR-5 37.6 µM | RPMI-8226 > 100 µM | A498 35 µM | HOP-92 23.2 µM | MDA-MB-231 20 µM | SNB-75 4.61 µM | OVCAR-8 16.6 µM | Malme-3M 69.5 µM | NCI-H23 25.6 µM | SF-295 15.2 µM | BT-549 32.4 µM | RXF 393 13 µM | HT-29 > 100 µM | HCT-116 61.7 µM | SW-620 > 100 µM | HCC 2998 > 100 µM

Cc1cc2nnn(C3CCCCO3)c2cc1C (stereo unspecified)
inactive: SK-MEL-5 > 100 µM | CAKI-1 > 100 µM | OVCAR-5 > 100 µM | MOLT-4 > 100 µM | SR > 100 µM | MDA-MB-231 > 100 µM | SNB-75 88.1 µM | OVCAR-8 > 100 µM | Malme-3M > 100 µM | NCI-H23 > 100 µM | SF-295 > 100 µM | BT-549 > 100 µM | RXF 393 > 100 µM | HT-29 > 100 µM | HCT-116 > 100 µM | HCC 2998 > 100 µM

Cc1ccc2nc(CN3CCCC(O)C3)cc(=O)n2c1 (stereo unspecified)
inactive: CAKI-1 > 100 µM | OVCAR-5 > 100 µM | RPMI-8226 > 100 µM | MOLT-4 > 100 µM | SR > 100 µM | HOP-92 > 100 µM | MDA-MB-231 > 100 µM | SNB-75 > 100 µM | OVCAR-8 > 100 µM | Malme-3M > 100 µM | NCI-H23 > 100 µM | SF-295 > 100 µM | BT-549 > 100 µM | HT-29 > 100 µM | HCT-116 > 100 µM | SW-620 > 100 µM | HCC 2998 > 100 µM

Reference: ChEMBL document CHEMBL1201862, “PubChem BioAssay data set” (2004)
